Columns and labels:
[1] = system: Murine Tregs; assay: 3-day Treg suppression assay (CFSE-labeled T effector cell proliferation, FACS); format: cell-based; conditions: Tregs pre-treated with 10 μM for 2 h, washed (FIG. 7)
Procedure: FIG. 7 graphically illustrates the inhibition of Treg functions after treatment with USP7 inhibitor compound 5. Murine Tregs were pre-treated with compound 5 for 2 hrs, washed and incubated with carboxyfluorescein succinimidyl ester (CFSE) labeled T effector cells at varying concentrations for 3 days. T effector cell proliferation was monitored using FACS analysis. Percentage proliferation is plotted using Graphpad prism.
Initial in vitro determination of the effect of compounds on the Treg-Teff system was performed by co-culturing drug pretreated Treg cell with Teff cells for three days and determining the Teff proliferation by flow cytometry. The compounds that were active in enhancing Teff growth were then examined for their effect on biomarkers. The most interesting compounds were tested for their effect on tumor growth in immune competent mice inoculated with lung cancer cells subcutaneously.
3-day Treg suppression assay in which isolated Tregs were treated with DMSO or experimental compound, washed and added to wells in which T cell proliferation was induced by CD3 mAb plus APC; % proliferation of CFSE-labeled conventional (Tcon) cells is shown in blue for each Treg:Tcon ratio. […] Flow cytometry confirmed marked or moderate down-regulation of Foxp3 expression by Treg cells exposed to potential inhibitor for 2 hrs. […]

[2] = molecular target: T1, USP7core WT (Homo sapiens, UniProt Q93009); assay: LC-MS detection of covalent adduct with purified USP7core WT; format: binding; conditions: 5 μM USP7core WT, 100 μM compound, room temperature, 4 hrs
T1 construct: 5 μM purified USP7core WT or active site cysteine mutant C223A were incubated with 100 μM Compound 5
Procedure: (§1) FIG. 4 provides data showing an example of the covalent irreversible nature of disclosed USP7 inhibitors. 5 μM purified USP7core WT or active site cysteine mutant C223A were incubated with 100 μM Compound 5 or DMSO at room temperature for 4 hrs, and then the protein/compound reaction products were mixed with equal volume of 0.1% Trifluoroacetic acid (TFA) before LC-MS injection. The samples were analyzed by reverse-phase liquid chromatography coupled to UV and MS detection (Agilent, 6220 Accurate-Mass Time-of-Flight (TOF) LC/MS). […] FIG. 4 provides data showing an example of the covalent irreversible nature of disclosed USP7 inhibitors. 5 μM purified USP7core WT or active site cysteine mutant C223A were incubated with 100 μM Compound 5 or DMSO at room temperature for 4 hrs, and then the protein/compound reaction products were mixed with equal volume of 0.1% Trifluoroacetic acid (TFA) before LC-MS injection. The samples were analyzed by reverse-phase liquid chromatography coupled to UV and MS detection (Agilent, 6220 Accurate-Mass Time-of-Flight (TOF) LC/MS).

[3] = system: HDM2; assay: Immunoblot of HDM2 level in treated Jurkat cells; format: cell-based; conditions: immunoblot (FIG. 6)
Procedure: (§2) FIG. 6 graphically illustrates a decrease in USP7 oncogenic substrates HDM2 and UHRF1 levels in Jurkat cells treated with the USP7i compound 5. 20 μg total cell lysates from each samples were separated on 10% SDS-PAGE and immunoblotted with antibodies against HDM2, UHRF1 and Actin (loading control).
(§3) Jurkat cells were incubated with an exemplary compound of the present invention (e.g., compound 5), washed, and incubated for an additional 0-96 h. USP7 was immunoprecipitated from lysates and USP7 activity measured. […] Total cell deubiquitinase activity can be performed to determine selectivity of these compounds (FIG. 5C). These experiments delineate a simple, powerful biomarker for determining the dose-efficacy relationship in the pre-clinical/clinical evaluation of irreversible USP7 inhibitors. Inhibitors were also tested in cells for effects on various PD markers, including two major USP7 substrates, HDM2 and UHRF1.

[4] = system: UHRF1; assay: Immunoblot of UHRF1 level in treated Jurkat cells; format: cell-based; conditions: immunoblot (FIG. 6)
Procedure: as §2, §3

[5] = molecular target: T2, USP7 (Homo sapiens, UniProt Q93009); assay: DUB activity of USP7 immunoprecipitated from treated Jurkat cells (Ub-EKL assay); format: cell-based; conditions: for USP7 catalytic activity returned after washout: Jurkat cells exposed for 2 hours
T2 construct: endogenous in cells; host or cells: Jurkat
Procedure: FIG. 5A-FIG. 5C graphically illustrate that the disclosed USP7 inhibitors of the invention are irreversible inhibitors. Jurkat cells were treated with 10 μM USP7i for indicated time period (FIG. 5A) or pulse treated for 2 h with 10 μM compound 5 (FIG. 5B), washed and incubated for the indicated time period followed by DUB activity measurement of immunoprecipitated USP7 as well as total cell lysate (FIG. 5C) using Ub-EKL assay as described previously (U.S. Pat. No. 8,680,139). A portion of the immunoprecipitated USP7 is separated on 10% SDS-PAGE and immunoblotted with anti-USP7 antibody to detect the level of USP7 protein (shown at the top of graphs in FIG. 5A and FIG. 5B). […] Jurkat cells were exposed to Compound 5 for 2 hours and the compounds were washed away followed by incubation for various time points. Cells were harvested, lysed and their USP7 immunoprecipitated and washed with buffer. […] Jurkat cells were incubated with an exemplary compound of the present invention (e.g., compound 5), washed, and incubated for an additional 0-96 h. USP7 was immunoprecipitated from lysates and USP7 activity measured. […] Total cell deubiquitinase activity can be performed to determine selectivity of these compounds (FIG. 5C). These experiments delineate a simple, powerful biomarker for determining the dose-efficacy relationship in the pre-clinical/clinical evaluation of irreversible USP7 inhibitors. Inhibitors were also tested in cells for effects on various PD markers, including two major USP7 substrates, HDM2 and UHRF1.

[6] = molecular target: USP7 core C223A (Homo sapiens, UniProt Q93009, C223A); assay: LC-MS detection of covalent adduct with USP7 core active site cysteine mutant C223A; format: binding; conditions: 5 μM C223A, 100 μM compound, room temperature, 4 hrs
Procedure: as §1

[7] = system: TC1 lung tumor; assay: TC1 flank tumor model in immunocompetent mice; format: in vivo, B6 mice
Procedure: Inhibition was statistically significant at the p<0.05 level (**).
USP7 targeting inhibits flank tumor growth via a Treg-dependent mechanism in immunocompetent mice (FIGS. 8A and 8B). Eight week-old B6 mice were injected with 5×10^5 TC1 tumor cells, and 1 week later, when tumors had reached ˜100 mm^3, mice were implanted with 14 day Alzet pumps containing vehicle or USP7i at doses 0.6 mg/kg, 1 mg/kg, and 6 mg/kg. Tumor growth was measured twice weekly for 2 weeks, and the study continued for an additional time period without further dosing. At sacrifice, spleens, draining lymph nodes (DLN), and tumors can be assessed by flow cytometry, histology, immunohistology and qPCR. Such studies can be performed in both immunocompetent and immunodeficient mice.

[8] = pooled analysis of 14 phase I-III studies, various doses; cited from earlier work

T2 sequence (Q93009 whole entry): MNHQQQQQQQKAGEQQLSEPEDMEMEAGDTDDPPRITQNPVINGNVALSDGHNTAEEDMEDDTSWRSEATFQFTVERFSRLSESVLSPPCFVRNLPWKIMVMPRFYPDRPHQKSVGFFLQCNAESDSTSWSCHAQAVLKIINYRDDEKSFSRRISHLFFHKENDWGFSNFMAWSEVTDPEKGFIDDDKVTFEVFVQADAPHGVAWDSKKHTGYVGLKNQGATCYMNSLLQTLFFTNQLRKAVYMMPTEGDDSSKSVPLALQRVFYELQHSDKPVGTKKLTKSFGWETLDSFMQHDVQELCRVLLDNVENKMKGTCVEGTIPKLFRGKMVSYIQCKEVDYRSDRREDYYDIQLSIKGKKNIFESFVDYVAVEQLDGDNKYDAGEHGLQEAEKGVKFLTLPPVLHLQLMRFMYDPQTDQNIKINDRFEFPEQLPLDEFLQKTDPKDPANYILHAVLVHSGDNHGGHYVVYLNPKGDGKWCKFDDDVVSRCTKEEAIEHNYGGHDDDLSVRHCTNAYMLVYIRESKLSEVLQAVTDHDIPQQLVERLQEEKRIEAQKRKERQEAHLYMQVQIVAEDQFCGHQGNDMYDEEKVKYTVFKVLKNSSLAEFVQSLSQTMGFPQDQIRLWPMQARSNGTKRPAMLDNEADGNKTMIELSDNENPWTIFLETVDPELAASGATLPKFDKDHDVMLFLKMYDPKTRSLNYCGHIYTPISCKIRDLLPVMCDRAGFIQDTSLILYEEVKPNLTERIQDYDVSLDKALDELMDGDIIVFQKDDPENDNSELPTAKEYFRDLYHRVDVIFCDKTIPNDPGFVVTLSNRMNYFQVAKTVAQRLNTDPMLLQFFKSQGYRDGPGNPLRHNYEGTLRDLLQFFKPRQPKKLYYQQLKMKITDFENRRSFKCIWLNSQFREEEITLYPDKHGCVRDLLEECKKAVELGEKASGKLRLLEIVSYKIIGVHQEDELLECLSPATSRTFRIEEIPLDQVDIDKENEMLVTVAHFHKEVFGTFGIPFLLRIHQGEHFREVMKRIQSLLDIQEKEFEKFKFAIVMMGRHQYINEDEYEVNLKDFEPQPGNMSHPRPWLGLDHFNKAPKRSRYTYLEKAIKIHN
USP7 core C223A, sequence (Q93009 214-521 C223A limits assumed): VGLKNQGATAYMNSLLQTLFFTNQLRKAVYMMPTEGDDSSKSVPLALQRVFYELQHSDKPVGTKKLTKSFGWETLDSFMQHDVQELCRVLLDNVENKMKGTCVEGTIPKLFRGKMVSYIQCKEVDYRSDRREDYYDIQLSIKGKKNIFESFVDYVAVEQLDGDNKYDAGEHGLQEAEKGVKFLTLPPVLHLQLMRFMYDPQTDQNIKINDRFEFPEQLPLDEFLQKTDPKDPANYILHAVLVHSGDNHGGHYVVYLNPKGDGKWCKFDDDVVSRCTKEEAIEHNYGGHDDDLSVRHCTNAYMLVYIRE
T1 sequence (Q93009 214-521 limits assumed): as the sequence (Q93009 214-521 C223A limits assumed) above, with A10C counted along it

CS(=O)(=O)c1cccc(NC(=O)c2cc([N+](=O)[O-])c(Sc3c(Cl)cncc3Cl)s2)c1 [Compound 5, 5-[(3,5-dichloropyridin-4-yl)sulfanyl]-N-[3-(methylsulfonyl)phenyl]-4-nitrothiophene-2-carboxamide]
Treg suppressive functions [1]: marked impairment of Treg suppressive functions
covalent adduct formation with USP7 core [2]: formed a covalent adduct
HDM2 level [3]: decrease
UHRF1 level [4]: decrease
USP7 catalytic activity returned after washout ([5]; washed, after 48 hours): about 55%
USP7 catalytic activity returned after washout ([5]; washed, after 72 hours): 68%
USP7 activity after pulse treatment ([5]; Jurkat cells, 10 μM for 2 h, washed, even after 72 h (FIG. 5B)): prolonged inhibition of USP7 activity
catalytic activity of isolated USP7 ([5]; Jurkat cells, incubation with inhibitor for 1 h (FIG. 5A)): significant inhibition of catalytic activity
covalent adduct formation with USP7 core C223A [6]: failed to form an adduct
TC1 lung tumor growth ([7]; Day 16, statistically significant p<0.05 (FIG. 8A, 8B)): inhibition of TC1 lung tumor growth
tumor regression ([7]; TC1 tumors (FIG. 8B)): complete tumor regression in several mice

ipilimumab
patients with immune-related adverse effects [8]: 64%

Reference: patent publication US9717717B1, “Methods of treating cancer through the inhibition of USP7 and immune system modulation” (Progenra, Inc., priority 2015, dated 2017)
